Patent US8470834B2, “AZO-substituted pyridine and pyrimidine derivatives and their use in treating viral infections” (Merck Sharp & Dohme Corp., priority 2008, dated 2013)

Columns and labels:
[1] = system: HCV replicon cells; assay: Cell-based HCV Replicon Assay; conditions: Hepatitis C virus, 72 h; replicon RNA level by real time PCR (Taqman), day 3; EC90 = concentration to achieve ΔCT=3.2 over baseline
Protocol: Assays Cell-based HCV Replicon Assay
To measure cell-based anti-HCV activity of the compounds of the present invention, replicon cells were seeded at 5000 cells/well in 96-well collagen I-coated Nunc plates in the presence of the compound of the invention. […] The final concentration of DMSO was 0.5%, fetal bovine serum was 10%, in the assay media. […] The replicon RNA level was measured using real time PCR (Taqman assay). The amplicon was located in 5B. The
GAPDH RNA was used as endogenous control and was amplified in the same reaction as NS5B (multiplex PCR) using primers and VIC-labeled probe recommended by the manufacturer (PE Applied Biosystem). The real-time RT-PCR reactions were run on ABI PRISM 7900HT Sequence Detection System using the following program: 48° C. for 30 min, 95° C. for 10 min, 40 cycles of 95° C. for 15 sec, 60° C. for 1 min. The ΔCT values (CT5B-CTGAPDH) were plotted against the concentration of test compound and fitted to the sigmoid dose-response model using GraphPad PRISM software. EC50 was defined as the concentration of inhibitor necessary to achieve ΔCT=1 over the projected baseline; EC90 the concentration necessary to achieve ΔCT=3.2 over the baseline. Alternatively, to quantitate the absolute amount of replicon RNA, a standard curve was established by including serially diluted T7 transcripts of replicon RNA in the Taqman assay. […]

Row | melting point | Compound | EC90 [1]
1 | 238 to 241 °C (dec.) | Nc1nc(Cl)c(/N=N/c2ccc(Cl)cc2)c(N[C@H]2C[C@@H](CO)[C@H](O)[C@@H]2O)n1 [Compound 11, (1S,2R,3S,5S)-3-[[2-amino-6-chloro-5-[(4-chlorophenyl)azo]-4-pyrimidinyl]amino]-5-(hydroxymethyl)-1,2-cyclopentanediol] | –
2 | – | Nc1nc(Cl)c(/N=N/c2ccc(Cl)cc2)c(N[C@@H]2C[C@H](CO)[C@@H](O)C2)n1 (racemic) [Compound 8, Cyclopentanemethanol, 4-[[2-amino-6-chloro-5-[(4-chlorophenyl)azo]-4-pyrimidinyl]amino]-2-hydroxy-, cis, trans—(+−)—] | > 5 µM
